According to patent US20250177458A1, “USES OF BIFIDOBACTERIUM LONGUM MICROORGANISMS HAVING THE CAPACITY TO DEGRADE BOTH HMO AND PLANT-DERIVED GLYCANS” (SOCIETE DES PRODUITS NESTLE S.A., priority 2022, published 2025):

Tested on: transitional B. longum isolate NCC5004
Experiment: in vitro tube fermentation of fecal sample supplemented with isolate NCC5004, isolate-specific qPCR
Format: cell-based, Bifidobacterium longum
Conditions: HMO 5 g/L as single carbon source, toddler fecal community, after 24 hr and 48 hrs
Protocol: All bacterial strains retrieved from the Nestlé Culture Collection (NCC) were reactivated from a freeze-dried stock using two successive culturing steps (16 h, 37° C., anaerobiosis) in MRS (De Man, Rogosa and Sharpe) media supplemented with 0.05% cysteine (MRSc). Reactivated cultures were then centrifuged, washed, and resuspended in 1 volume of PBS.
For in vitro tube fermentation experiments, pulverized or homogenized stool samples were mixed 10-fold by adding PBS/glycerol (1/10) (w/v) before centrifugation at 600×g for 2 minutes. The slurry and pellet were then stored at −80° C. Frozen slurry of a fecal sample was thawed from storage and then use for the in vitro tube fermentation assays. The fecal slurry was inoculated with media based on that disclosed in Gibson et al. (Applied and Environmental Microbiology; 1988; 54(11); 2750-2755) with some modifications, specifically the exclusion of any carbon source. […]
The in vitro tube fermentation assays (n=3 per testing group) were set up at 37° C. with gentle stirring in an anaerobic environment (gas flow of pure N2 and a mix of N2, H2, and CO2 to ensure anaerobic conditions). Aliquots (0.5 mL) from fermentation tubes were taken and DNA was extracted, purified and analyzed at the time points indicated (0 hr, 24 hr and 48 hr). […]

Substance | growth of NCC5004 (qPCR absolute abundance) compared to baseline (0 hrs)
2′ fucosyllactose [2′FL] | significant growth
3-fucosyllactose [3 FL] | significant growth
